Test results as given in ChEMBL document CHEMBL5321205, “Development and therapeutic potential of adaptor-associated kinase 1 inhibitors in human multifaceted diseases” (Eur J Med Chem, 2023).
One block for each compound: values may come before it.

What was measured:
[1] = Half life in mouse at 10 mg/kg, po or 1 mg/kg, iv measured upto 24 hrs; format: ADME, organism-based; settings: in vivo
[2] = Oral bioavailability in mouse at 10 mg/kg measured upto 24 hrs; format: ADME, organism-based; settings: in vivo
[3] = target: T1, AP2-associated protein kinase 1 (Homo sapiens, UniProt Q2M2I8); assay: Inhibition of AAK1 expressed in human […] cells; format: cell-based, HEK293F
T1 sequence (Q2M2I8 whole entry): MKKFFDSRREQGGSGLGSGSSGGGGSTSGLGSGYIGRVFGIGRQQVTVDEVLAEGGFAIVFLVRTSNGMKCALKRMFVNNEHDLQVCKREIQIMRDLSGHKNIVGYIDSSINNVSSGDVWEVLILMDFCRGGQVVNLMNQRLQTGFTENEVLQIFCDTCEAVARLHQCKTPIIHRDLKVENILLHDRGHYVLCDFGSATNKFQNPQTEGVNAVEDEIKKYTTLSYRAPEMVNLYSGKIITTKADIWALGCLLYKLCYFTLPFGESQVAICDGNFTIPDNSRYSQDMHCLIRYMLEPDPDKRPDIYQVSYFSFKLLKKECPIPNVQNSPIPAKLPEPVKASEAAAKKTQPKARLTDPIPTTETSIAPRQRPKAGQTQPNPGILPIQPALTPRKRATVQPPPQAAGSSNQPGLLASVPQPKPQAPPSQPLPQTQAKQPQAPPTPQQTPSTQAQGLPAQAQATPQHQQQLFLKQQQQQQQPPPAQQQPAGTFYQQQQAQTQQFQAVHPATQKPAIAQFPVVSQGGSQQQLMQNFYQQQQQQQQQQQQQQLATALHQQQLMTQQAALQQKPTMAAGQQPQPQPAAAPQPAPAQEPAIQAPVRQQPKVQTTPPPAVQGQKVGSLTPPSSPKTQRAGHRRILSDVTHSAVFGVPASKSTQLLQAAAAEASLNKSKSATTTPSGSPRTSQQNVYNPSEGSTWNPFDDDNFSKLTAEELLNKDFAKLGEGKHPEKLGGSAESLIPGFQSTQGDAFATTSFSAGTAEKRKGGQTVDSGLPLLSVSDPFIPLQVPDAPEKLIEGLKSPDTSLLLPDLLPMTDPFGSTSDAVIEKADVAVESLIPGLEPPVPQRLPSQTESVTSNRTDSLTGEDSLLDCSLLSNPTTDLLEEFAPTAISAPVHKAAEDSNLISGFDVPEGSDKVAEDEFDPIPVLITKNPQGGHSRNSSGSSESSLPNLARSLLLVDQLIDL

[4] = target: T1, AP2-associated protein kinase 1; assay: Inhibition of AAK1 (unknown origin)
[5] = target: T1, AP2-associated protein kinase 1; assay: Binding affinity of AAK1 (unknown origin) assessed as dissociation constant
[6] = target: T1, AP2-associated protein kinase 1; assay: Inhibition of GST-tagged recombinant AAK1 (unknown origin) using AP2M1 peptide as substrate by ADP-Glo kinase assay
[7] = target: T1, AP2-associated protein kinase 1; assay: Inhibition of GST-Xa-tagged recombinant human AAK1 using (5-FAM)-Aha-KEEQSQITSQVTGQIGWR-NH2 as substrate assessed as reduction in AP2M1 phosphorylation incubated for 3 hrs in presence of ATP by fluorescence based assay

IC50 [4]: < 10 nM
Kd [5]: 1 nM
Compound: COc1ncccc1-c1cnc2ccc(N3CC[C@@H](N(C)C(=O)OC(C)C)C3)nn12

Kd [5]: 1060 nM
Compound: COC(=O)c1ccc2c(c1)NC(=O)C2C(Nc1ccc(N(C)C(=O)CN2CCN(C)CC2)cc1)c1ccccc1 (stereo unspecified)

IC50 [4]: < 10 nM
Kd [5]: 1 nM
Compound: COc1ncccc1-c1cnc2ccc(N3CC[C@@H](N(C)C(=O)OC(C)(C)C)C3)nn12

Continued, compound first:

Compound: COc1ncccc1-c1cnn2ccc(N3CCN(C(=O)OC(C)C)CC3)nc12
half-life [1]: 3.6 h
bioavailability [2]: 100%

Compound: CC(C)C[C@](C)(N)COc1ccc(-c2ccncc2)cc1C(F)(F)F
IC50 [3]: 2.9 nM

Compound: COC(=O)[C@@]1(O)C[C@@H]2O[C@]1(C)n1c3ccccc3c3c4c(c5c6ccccc6n2c5c31)C(=O)NC4
IC50 [6]: < 10 nM

Compound: [3H]CC([3H])(C[3H])C([3H])[C@H](N)COc1ccc2c(c1)[nH]c(=O)c1cnccc12 (stereo partly specified)
IC50 [7]: 2.8 nM

Compound: COC(=O)[C@@]1(O)[C@@H](C)[C@H]2O[C@]1(C)n1c3ccccc3c3c4c(c5c6ccccc6n2c5c31)C(=O)NC4
IC50 [6]: < 30 nM
